Values joined by “and” are separate entries in the source; they are usually repeats but may differ in a detail not shown here. Equal entries are not always repeated.
Columns and labels:
UCHL1 = biological target: T1, UCHL1 (Homo sapiens, UniProt P09936); assay: UCHL1 inhibitor kinetic analysis (Ub-AMC fluorescence intensity); type: biochemical; set-up: rapidly targets endogenous UCHL1 in cells; endogenous in cells; host or cells: HEK293; conditions: UCHL1 3 nM, Ub-AMC 130 nM; read-out: kobs/I
T1 sequence (P09936 1-223): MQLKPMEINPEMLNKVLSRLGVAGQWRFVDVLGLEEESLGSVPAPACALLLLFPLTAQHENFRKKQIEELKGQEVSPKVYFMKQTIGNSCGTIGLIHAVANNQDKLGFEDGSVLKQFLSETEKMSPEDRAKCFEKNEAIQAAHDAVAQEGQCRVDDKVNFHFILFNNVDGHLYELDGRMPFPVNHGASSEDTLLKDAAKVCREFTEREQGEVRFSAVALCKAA

[1] = test system: HEK293 cells whole proteome; assay: Whole proteome analysis (no enrichment) of HEK293 cells treated with ABP 2, TMT; type: cell-based, human
[2] = biological target: DUBs and other proteins in HEK293 cells (Homo sapiens, UniProt P54578); assay: Quantitative chemical proteomic profiling of ABP 2 in HEK293 cells: other DUBs and proteins across the proteome; conditions: USP14, listed as ABP 2
[3] = biological target: DUBs and other proteins in HEK293 cells (Homo sapiens, UniProt Q6P2Q9); assay: as above; conditions: PRPF8, listed as ABP 2
[4] = biological target: DUBs and other proteins in HEK293 cells (Homo sapiens, UniProt Q93008); assay: as above; conditions: USP9X, listed as ABP 2
[5] = biological target: DUBs and other proteins in HEK293 cells (Homo sapiens, UniProt Q93009); assay: as above; conditions: USP7, listed as ABP 2
[6] = biological target: DUBs and other proteins in HEK293 cells (Homo sapiens, UniProt Q96FW1); assay: as above; conditions: OTUB1, listed as ABP 2
[7] = biological target: T2, DUBs and other proteins in HEK293 cells (Homo sapiens, UniProt Q9Y4E8); assay: as above; conditions: USP15, listed as ABP 2
T2 sequence (Q9Y4E8 1-981): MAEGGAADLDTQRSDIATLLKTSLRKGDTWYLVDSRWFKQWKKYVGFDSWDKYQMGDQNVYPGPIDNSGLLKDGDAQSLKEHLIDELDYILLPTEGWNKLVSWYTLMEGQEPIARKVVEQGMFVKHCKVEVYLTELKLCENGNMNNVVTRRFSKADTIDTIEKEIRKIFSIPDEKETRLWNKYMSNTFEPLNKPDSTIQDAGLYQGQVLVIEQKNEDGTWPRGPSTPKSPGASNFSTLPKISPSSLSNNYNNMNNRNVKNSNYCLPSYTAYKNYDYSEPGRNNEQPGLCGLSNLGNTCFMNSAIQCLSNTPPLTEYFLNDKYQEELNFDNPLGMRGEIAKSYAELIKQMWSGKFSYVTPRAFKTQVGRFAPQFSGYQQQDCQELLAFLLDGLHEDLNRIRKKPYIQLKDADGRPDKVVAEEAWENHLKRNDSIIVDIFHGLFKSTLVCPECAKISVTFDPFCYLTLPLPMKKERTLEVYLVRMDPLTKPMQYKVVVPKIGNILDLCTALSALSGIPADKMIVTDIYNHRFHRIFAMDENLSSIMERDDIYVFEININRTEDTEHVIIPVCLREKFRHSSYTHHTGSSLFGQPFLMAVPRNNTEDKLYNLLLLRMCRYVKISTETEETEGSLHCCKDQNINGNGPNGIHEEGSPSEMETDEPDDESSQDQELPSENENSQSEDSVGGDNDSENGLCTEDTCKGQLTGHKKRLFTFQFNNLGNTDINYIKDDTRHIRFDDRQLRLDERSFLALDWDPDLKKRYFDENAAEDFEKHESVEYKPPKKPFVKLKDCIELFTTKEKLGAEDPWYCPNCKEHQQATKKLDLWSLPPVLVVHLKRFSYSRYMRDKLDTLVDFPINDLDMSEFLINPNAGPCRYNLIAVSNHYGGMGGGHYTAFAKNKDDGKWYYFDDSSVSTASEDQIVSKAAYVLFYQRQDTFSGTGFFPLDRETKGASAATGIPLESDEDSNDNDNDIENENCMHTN

[8] = whole proteome, no enrichment, HEK293, 0.02 μM vs DMSO, 1 h
[9] = whole proteome, no enrichment, HEK293, 0.2 μM vs DMSO, 1 h
[10] = whole proteome, no enrichment, HEK293, 2 μM vs DMSO, 1 h
[11] = 200 nM, 180 min, replicates A,C

Chain of DUBs and other proteins in HEK293 cells (Homo sapiens, UniProt P54578) (P54578 whole entry): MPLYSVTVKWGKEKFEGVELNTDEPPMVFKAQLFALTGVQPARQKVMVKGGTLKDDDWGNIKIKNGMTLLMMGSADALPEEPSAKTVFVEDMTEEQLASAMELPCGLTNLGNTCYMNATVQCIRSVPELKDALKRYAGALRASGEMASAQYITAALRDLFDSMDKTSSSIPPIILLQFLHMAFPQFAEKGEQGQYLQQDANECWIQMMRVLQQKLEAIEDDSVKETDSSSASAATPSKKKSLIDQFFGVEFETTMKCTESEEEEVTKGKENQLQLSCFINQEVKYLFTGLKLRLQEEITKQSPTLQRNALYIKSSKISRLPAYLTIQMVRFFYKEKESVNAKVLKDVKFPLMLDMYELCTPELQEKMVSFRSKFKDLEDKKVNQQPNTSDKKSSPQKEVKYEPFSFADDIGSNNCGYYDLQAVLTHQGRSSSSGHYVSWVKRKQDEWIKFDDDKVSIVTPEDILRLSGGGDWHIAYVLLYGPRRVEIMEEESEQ
Chain of DUBs and other proteins in HEK293 cells (Homo sapiens, UniProt Q93009) (Q93009 whole entry): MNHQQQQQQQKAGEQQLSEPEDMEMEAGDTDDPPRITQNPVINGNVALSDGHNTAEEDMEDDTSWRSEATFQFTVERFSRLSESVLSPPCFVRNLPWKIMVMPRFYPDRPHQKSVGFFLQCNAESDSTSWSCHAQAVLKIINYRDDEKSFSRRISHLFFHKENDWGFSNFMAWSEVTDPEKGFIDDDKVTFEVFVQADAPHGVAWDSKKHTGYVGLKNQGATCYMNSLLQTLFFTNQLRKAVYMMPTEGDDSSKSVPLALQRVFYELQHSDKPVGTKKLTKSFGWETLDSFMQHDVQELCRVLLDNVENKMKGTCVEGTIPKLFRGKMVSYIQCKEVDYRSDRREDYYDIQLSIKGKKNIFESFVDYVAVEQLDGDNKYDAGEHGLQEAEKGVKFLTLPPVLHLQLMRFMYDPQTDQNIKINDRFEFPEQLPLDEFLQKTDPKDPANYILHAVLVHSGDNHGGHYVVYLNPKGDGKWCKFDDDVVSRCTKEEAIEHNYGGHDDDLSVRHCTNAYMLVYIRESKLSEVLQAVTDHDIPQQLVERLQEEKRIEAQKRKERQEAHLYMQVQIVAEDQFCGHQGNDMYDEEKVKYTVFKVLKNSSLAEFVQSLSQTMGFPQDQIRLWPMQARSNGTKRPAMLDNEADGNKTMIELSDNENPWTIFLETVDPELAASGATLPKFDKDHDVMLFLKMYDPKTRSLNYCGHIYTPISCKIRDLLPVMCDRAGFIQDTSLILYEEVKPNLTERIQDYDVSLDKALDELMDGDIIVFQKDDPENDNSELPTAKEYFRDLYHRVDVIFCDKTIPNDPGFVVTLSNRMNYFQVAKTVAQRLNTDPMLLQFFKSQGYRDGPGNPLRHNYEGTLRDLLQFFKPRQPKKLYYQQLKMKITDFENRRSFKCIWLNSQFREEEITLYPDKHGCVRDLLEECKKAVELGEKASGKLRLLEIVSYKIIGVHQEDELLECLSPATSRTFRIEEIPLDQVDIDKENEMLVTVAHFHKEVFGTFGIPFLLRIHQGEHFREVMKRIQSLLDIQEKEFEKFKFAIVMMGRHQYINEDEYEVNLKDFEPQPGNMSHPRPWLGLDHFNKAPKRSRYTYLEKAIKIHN
Chain of DUBs and other proteins in HEK293 cells (Homo sapiens, UniProt Q93008) (Q93008 whole entry): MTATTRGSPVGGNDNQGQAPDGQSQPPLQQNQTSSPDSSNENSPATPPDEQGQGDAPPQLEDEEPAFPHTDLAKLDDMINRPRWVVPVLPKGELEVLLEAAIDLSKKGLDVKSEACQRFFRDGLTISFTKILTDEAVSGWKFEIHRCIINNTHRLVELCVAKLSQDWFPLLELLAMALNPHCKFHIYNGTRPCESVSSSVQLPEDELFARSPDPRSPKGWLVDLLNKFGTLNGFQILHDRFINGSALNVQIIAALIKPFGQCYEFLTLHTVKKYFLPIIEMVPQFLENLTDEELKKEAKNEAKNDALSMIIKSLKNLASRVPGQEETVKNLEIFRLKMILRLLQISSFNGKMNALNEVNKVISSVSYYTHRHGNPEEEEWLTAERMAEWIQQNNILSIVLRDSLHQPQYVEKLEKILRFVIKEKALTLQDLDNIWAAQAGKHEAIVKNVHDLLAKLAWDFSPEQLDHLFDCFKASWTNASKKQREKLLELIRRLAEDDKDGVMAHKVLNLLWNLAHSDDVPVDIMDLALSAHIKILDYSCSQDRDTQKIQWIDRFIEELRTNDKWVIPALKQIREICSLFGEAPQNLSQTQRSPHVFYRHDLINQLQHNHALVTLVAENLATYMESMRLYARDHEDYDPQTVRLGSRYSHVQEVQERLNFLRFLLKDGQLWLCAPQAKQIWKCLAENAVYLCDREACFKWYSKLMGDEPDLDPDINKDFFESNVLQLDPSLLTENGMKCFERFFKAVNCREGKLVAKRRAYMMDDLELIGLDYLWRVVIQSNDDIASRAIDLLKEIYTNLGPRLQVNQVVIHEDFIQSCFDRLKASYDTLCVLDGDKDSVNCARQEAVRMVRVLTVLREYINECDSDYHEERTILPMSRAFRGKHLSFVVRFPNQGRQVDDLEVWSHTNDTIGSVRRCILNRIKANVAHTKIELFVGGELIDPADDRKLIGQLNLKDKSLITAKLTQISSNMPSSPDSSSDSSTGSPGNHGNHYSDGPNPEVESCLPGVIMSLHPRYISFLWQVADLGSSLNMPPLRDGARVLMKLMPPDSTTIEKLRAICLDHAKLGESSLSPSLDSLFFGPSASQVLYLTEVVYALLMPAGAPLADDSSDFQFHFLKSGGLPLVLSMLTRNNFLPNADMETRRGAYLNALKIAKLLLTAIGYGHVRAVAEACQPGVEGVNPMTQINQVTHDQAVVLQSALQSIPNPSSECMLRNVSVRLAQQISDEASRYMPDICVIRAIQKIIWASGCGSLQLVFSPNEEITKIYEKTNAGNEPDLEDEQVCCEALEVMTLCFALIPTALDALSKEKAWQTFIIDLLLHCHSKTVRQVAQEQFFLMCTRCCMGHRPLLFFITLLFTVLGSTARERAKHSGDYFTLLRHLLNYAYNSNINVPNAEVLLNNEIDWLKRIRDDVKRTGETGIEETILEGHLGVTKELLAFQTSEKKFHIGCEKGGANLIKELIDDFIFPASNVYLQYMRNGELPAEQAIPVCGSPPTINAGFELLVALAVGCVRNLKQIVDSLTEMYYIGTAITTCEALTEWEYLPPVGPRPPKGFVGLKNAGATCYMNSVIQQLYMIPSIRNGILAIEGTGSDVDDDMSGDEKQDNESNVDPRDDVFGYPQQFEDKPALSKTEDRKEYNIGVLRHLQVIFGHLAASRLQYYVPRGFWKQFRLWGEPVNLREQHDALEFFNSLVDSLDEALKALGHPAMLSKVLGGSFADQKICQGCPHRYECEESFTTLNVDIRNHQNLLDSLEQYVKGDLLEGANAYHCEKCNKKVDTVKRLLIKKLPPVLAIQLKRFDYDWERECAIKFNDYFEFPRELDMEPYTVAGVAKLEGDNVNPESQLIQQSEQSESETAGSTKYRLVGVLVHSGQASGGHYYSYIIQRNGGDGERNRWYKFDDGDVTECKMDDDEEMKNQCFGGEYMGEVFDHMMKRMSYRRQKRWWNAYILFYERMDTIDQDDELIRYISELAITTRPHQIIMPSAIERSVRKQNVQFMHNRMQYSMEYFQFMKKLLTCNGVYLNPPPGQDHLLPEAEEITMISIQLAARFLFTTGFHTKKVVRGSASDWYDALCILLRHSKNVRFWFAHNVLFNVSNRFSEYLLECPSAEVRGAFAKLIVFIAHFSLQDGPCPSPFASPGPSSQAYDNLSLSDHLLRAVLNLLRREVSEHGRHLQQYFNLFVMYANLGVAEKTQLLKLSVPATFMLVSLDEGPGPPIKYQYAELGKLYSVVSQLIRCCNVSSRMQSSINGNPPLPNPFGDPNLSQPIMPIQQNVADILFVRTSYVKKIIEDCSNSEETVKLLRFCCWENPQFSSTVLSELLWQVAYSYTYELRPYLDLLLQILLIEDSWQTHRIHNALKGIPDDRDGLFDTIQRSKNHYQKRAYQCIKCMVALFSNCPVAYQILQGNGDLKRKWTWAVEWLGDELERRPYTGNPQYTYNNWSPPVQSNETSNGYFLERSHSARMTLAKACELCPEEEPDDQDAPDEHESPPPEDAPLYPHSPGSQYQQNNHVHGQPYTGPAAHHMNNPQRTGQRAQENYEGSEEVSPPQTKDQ
Chain of DUBs and other proteins in HEK293 cells (Homo sapiens, UniProt Q96FW1) (Q96FW1 whole entry): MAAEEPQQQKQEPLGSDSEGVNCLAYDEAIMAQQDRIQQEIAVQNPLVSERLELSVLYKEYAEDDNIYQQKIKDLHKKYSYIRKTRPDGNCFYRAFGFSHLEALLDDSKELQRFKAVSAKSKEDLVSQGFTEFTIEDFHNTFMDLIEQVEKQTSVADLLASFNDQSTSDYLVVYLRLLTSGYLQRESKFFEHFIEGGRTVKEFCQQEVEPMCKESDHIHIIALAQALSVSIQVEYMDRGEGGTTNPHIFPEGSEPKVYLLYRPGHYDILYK

## N#CN1CCC[C@H]1C(=O)N1CCc2c(-c3c[nH]c4ncccc34)cccc21 [Compound 1]
UCHL1
  kinact/KI: 7400 M⁻¹ s⁻¹

## C#Cc1cnc2[nH]cc(-c3cccc4c3CCN4C(=O)[C@@H]3CCCN3C#N)c2c1 [Compound 2]
[1]; HEK293, 20, 200 or 2000 nM, 60 min
  abundance change in whole proteome analysis: No significant abundance change
[1]; [8]
  Log2 t-test Difference, AAAS, ABP 2 -0.02 μM: 0.04017
  Log2 t-test Difference, AACS, ABP 2 -0.02 μM: -0.01983
  Log2 t-test Difference, AAGAB, ABP 2 -0.02 μM: 0.05728
  Log2 t-test Difference, AAMP, ABP 2 -0.02 μM: -0.03986
[1]; [9]
  Log2 t-test Difference, AAAS, ABP 2 -0.2 μM: -0.001777
  Log2 t-test Difference, AACS, ABP 2 -0.2 μM: 0.03866
  Log2 t-test Difference, AAGAB, ABP 2 -0.2 μM: 0.002598
  Log2 t-test Difference, AAMP, ABP 2 -0.2 μM: 0.04194
[1]; [10]
  Log2 t-test Difference, AAAS, ABP 2 -2 μM: 0.07218
  Log2 t-test Difference, AACS, ABP 2 -2 μM: 0.09255
  Log2 t-test Difference, AAGAB, ABP 2 -2 μM: 0.1494
  Log2 t-test Difference, AAMP, ABP 2 -2 μM: -0.01217
[2]; 2 nM, 60 min, replicates A-C
  Log2 reporter intensity values (Log2FC, DMSO substract): 0.01071 and 0.05631 and -0.04364
[2]; 20 nM, 10 min, replicates B,C
  Log2 reporter intensity values (Log2FC, DMSO substract): 0.009394 and 0.07693
[2]; 20 nM, 60 min, replicates A-C
  Log2 reporter intensity values (Log2FC, DMSO substract): 0.05332 and 0.1025
[2]; 20 nM, 180 min, replicates A-C
  Log2 reporter intensity values (Log2FC, DMSO substract): 0.1385 and 0.1351 and 0.05551
[2]; 200 nM, 10 min, replicates B,C
  Log2 reporter intensity values (Log2FC, DMSO substract): 0.1048
[2]; 200 nM, 60 min, replicates A-C
  Log2 reporter intensity values (Log2FC, DMSO substract): 0.05455 and 0.04834 and 0.1109
[2]; [11]
  Log2 reporter intensity values (Log2FC, DMSO substract): -0.08272 and -0.01544
[3]; 2 nM, 60 min, replicates A-C
  Log2 reporter intensity values (Log2FC, DMSO substract): -0.06588 and -0.04701 and -0.09225
[3]; 20 nM, 10 min, replicates B,C
  Log2 reporter intensity values (Log2FC, DMSO substract): -0.04258 and -0.0756
[3]; 20 nM, 60 min, replicates A-C
  Log2 reporter intensity values (Log2FC, DMSO substract): -0.1603 and -0.1771 and -0.09715
[3]; 20 nM, 180 min, replicates A-C
  Log2 reporter intensity values (Log2FC, DMSO substract): -0.4052 and -0.02523 and -0.1285
[3]; 200 nM, 10 min, replicates B,C
  Log2 reporter intensity values (Log2FC, DMSO substract): -0.213 and -0.1784
[3]; 200 nM, 60 min, replicates A-C
  Log2 reporter intensity values (Log2FC, DMSO substract): 0.0802 and -0.1457 and -0.1731
[3]; [11]
  Log2 reporter intensity values (Log2FC, DMSO substract): -0.0003694 and 0.003479
[4]; 2 nM, 60 min, replicates A-C
  Log2 reporter intensity values (Log2FC, DMSO substract): 0.06074 and 0.05768 and -0.1222
[4]; 20 nM, 10 min, replicates B,C
  Log2 reporter intensity values (Log2FC, DMSO substract): 0.0266 and 0.08583
[4]; 20 nM, 60 min, replicates A-C
  Log2 reporter intensity values (Log2FC, DMSO substract): -0.07107 and -0.1083 and 0.02034
[4]; 20 nM, 180 min, replicates A-C
  Log2 reporter intensity values (Log2FC, DMSO substract): -0.3167 and 0.0151 and 0.03374
[4]; 200 nM, 10 min, replicates B,C
  Log2 reporter intensity values (Log2FC, DMSO substract): 0.03305 and -0.1026
[4]; 200 nM, 60 min, replicates A-C
  Log2 reporter intensity values (Log2FC, DMSO substract): 0.09885 and 0.2045 and -0.1344
[4]; [11]
  Log2 reporter intensity values (Log2FC, DMSO substract): 0.109 and 0.1534
[5]; 2 nM, 60 min, replicates A-C
  Log2 reporter intensity values (Log2FC, DMSO substract): 0.06357 and 0.017 and -0.3747
[5]; 20 nM, 10 min, replicates B,C
  Log2 reporter intensity values (Log2FC, DMSO substract): -0.07969 and -0.2354
[5]; 20 nM, 60 min, replicates A-C
  Log2 reporter intensity values (Log2FC, DMSO substract): 0.02327 and -0.09058 and -0.2812
[5]; 20 nM, 180 min, replicates A-C
  Log2 reporter intensity values (Log2FC, DMSO substract): -0.1814 and -0.1595 and -0.1999
[5]; 200 nM, 10 min, replicates B,C
  Log2 reporter intensity values (Log2FC, DMSO substract): 0.1137
[5]; 200 nM, 60 min, replicates A-C
  Log2 reporter intensity values (Log2FC, DMSO substract): -0.04347 and 0.1524 and 0.1409
[5]; [11]
  Log2 reporter intensity values (Log2FC, DMSO substract): -0.01106 and 0.3029
[6]; 2 nM, 60 min, replicates A-C
  Log2 reporter intensity values (Log2FC, DMSO substract): 0.1769 and 0.1167 and 0.05908
[6]; 20 nM, 10 min, replicates B,C
  Log2 reporter intensity values (Log2FC, DMSO substract): 0.07104
[6]; 20 nM, 60 min, replicates A-C
  Log2 reporter intensity values (Log2FC, DMSO substract): 0.004019
[6]; 20 nM, 180 min, replicates A-C
  Log2 reporter intensity values (Log2FC, DMSO substract): -0.1034 and 0.07381 and 0.1015
[6]; 200 nM, 10 min, replicates B,C
  Log2 reporter intensity values (Log2FC, DMSO substract): 0.1233 and 0.1033
[6]; 200 nM, 60 min, replicates A-C
  Log2 reporter intensity values (Log2FC, DMSO substract): 0.176 and 0.4057 and 0.2275
[6]; [11]
  Log2 reporter intensity values (Log2FC, DMSO substract): 0.3761 and 0.4198
[7]; 2 nM, 60 min, replicates A-C
  Log2 reporter intensity values (Log2FC, DMSO substract): 0.1138 and 0.004511 and -0.04471
[7]; 20 nM, 10 min, replicates B,C
  Log2 reporter intensity values (Log2FC, DMSO substract): 0.2038 and 0.1797
[7]; 20 nM, 60 min, replicates A-C
  Log2 reporter intensity values (Log2FC, DMSO substract): 0.04003 and 0.2301 and -0.05461
[7]; 20 nM, 180 min, replicates A-C
  Log2 reporter intensity values (Log2FC, DMSO substract): -0.06212 and 0.248 and 0.23
[7]; 200 nM, 10 min, replicates B,C
  Log2 reporter intensity values (Log2FC, DMSO substract): -0.05955 and -0.05362
[7]; 200 nM, 60 min, replicates A-C
  Log2 reporter intensity values (Log2FC, DMSO substract): 0.07483 and 0.06943 and 0.1943
[7]; [11]
  Log2 reporter intensity values (Log2FC, DMSO substract): 0.004999 and 0.2331
